Values joined by “and” are separate entries in the source; they are usually repeats but may differ in a detail not shown here. Equal values may be shown once.
System: LX-1 lung xenograft sc, nude mice, tumor weight
Test: NCI In Vivo Anticancer Drug Screen. Data for tumor model Human Lung LX-1 Xenograft (subcutaneous) in NU/NU Swiss (nude) mice
Settings: endpoint: optimum tumor weight change, higher = larger tumour
Description: The antitumor activity of compounds was measured in mice bearing transplantable tumors. Survival or tumor size were measured and the results are expressed as the measurement made in the treated group (T) divided by the measurement made in the vehicle treated control group (C). The tumor model used in this assay is Human Lung LX-1 Xenograft (subcutaneous) in NU/NU Swiss (nude) mice

[1] = dose: 15.0 mg/kg/injection, schedule: Q04DX003 (ip), vehicle: saline
[2] = dose: 30.0 mg/kg/injection, schedule: Q04DX003 (ip), vehicle: saline
[3] = dose: 16.0 mg/kg/injection, schedule: Q04DX003 (ip), vehicle: saline
[4] = dose: 50.0 mg/kg/injection, schedule: Q04DX003 (ip), vehicle: water
[5] = dose: 200.0 mg/kg/injection, schedule: Q04DX003 (ip), vehicle: saline with Tween-80
[6] = dose: 400.0 mg/kg/injection, schedule: Q04DX003 (ip), vehicle: saline with Tween-80
[7] = dose: 200.0 mg/kg/injection, schedule: Q04DX003 (ip), vehicle: suspension in saline
[8] = dose: 400.0 mg/kg/injection, schedule: Q04DX003 (ip), vehicle: suspension in saline
[9] = dose: 800.0 mg/kg/injection, schedule: Q04DX003 (ip), vehicle: suspension in saline
[10] = dose: 12.5 mg/kg/injection, schedule: Q04DX003 (ip), vehicle: Klucel (hydroxypropylcellulose) (HPC)
[11] = dose: 25.0 mg/kg/injection, schedule: Q04DX003 (ip), vehicle: Klucel (hydroxypropylcellulose) (HPC)
[12] = dose: 12.5 mg/kg/injection, schedule: Q04DX003 (ip), vehicle: saline
[13] = dose: 25.0 mg/kg/injection, schedule: Q04DX003 (ip), vehicle: saline

Cc1c(N)nc(C(CC(N)=O)NCC(N)C(N)=O)nc1C(=O)NC(C(=O)NC(C)C(O)C(C)C(=O)NC(C(=O)NCCc1nc(-c2nc(C(=O)NCCCNC(C)c3ccccc3)cs2)cs1)C(C)O)C(OC1OC(CO)C(O)C(O)C1OC1OC(CO)C(O)C(OC(N)=O)C1O)c1cnc[nH]1 (stereo not drawn)
T/C [1]: 35 % of control
T/C [2]: 35 % of control

Cc1c(N)nc([C@H](CC(N)=O)NC[C@H](N)C(N)=O)nc1C(=O)N[C@H](C(=O)N[C@H](C)[C@@H](O)[C@H](C)C(=O)N[C@H](C(=O)NCCc1nc(-c2nc(C(=O)NCCC[S+](C)C)cs2)cs1)[C@@H](C)O)C(OC1OC(CO)C(O)C(O)C1OC1OC(CO)C(O)C(OC(N)=O)C1O)c1cnc[nH]1 (stereo partly drawn)
T/C (dose: 3.75 mg/kg/injection, schedule: Q04DX003 (ip), vehicle: saline): 45 % of control
T/C (dose: 4.0 mg/kg/injection, schedule: Q04DX003 (ip), vehicle: saline): 70 % of control
T/C [3]: 49 % of control and 56 % of control and 63 % of control
T/C [2]: 33 % of control and 55 % of control
T/C (dose: 60.0 mg/kg/injection, schedule: Q04DX003 (ip), vehicle: saline): 8 % of control and 21 % of control

ClCC[N+]12CC[N+](CCCl)(CC1)C2
T/C [4]: 81 % of control
T/C (dose: 100.0 mg/kg/injection, schedule: Q04DX003 (ip), vehicle: saline with Tween-80): 103 % of control
T/C (dose: 100.0 mg/kg/injection, schedule: Q04DX003 (ip), vehicle: water): 106 % of control
T/C [5]: 72 % of control
T/C (dose: 200.0 mg/kg/injection, schedule: Q04DX003 (ip), vehicle: water): 59 % of control
T/C [6]: 74 % of control
T/C (dose: 400.0 mg/kg/injection, schedule: Q04DX003 (ip), vehicle: water): 48 % of control

O=c1[nH]cnc2n[nH]nc12
T/C (dose: 200.0 mg/kg/injection, schedule: Q04DX003 (ip), vehicle: Klucel (hydroxypropylcellulose) (HPC)): 111 % of control
T/C (dose: 400.0 mg/kg/injection, schedule: Q04DX003 (ip), vehicle: Klucel (hydroxypropylcellulose) (HPC)): 59 % of control
T/C (dose: 800.0 mg/kg/injection, schedule: Q04DX003 (ip), vehicle: Klucel (hydroxypropylcellulose) (HPC)): 94 % of control

N[C@@H](Cc1ccc(N(CCCl)CCCl)cc1)C(=O)O
T/C (dose: 4.0 mg/kg/injection, schedule: Q04DX003 (ip), vehicle: suspension in saline): 81 % of control and 87 % of control
T/C (dose: 8.0 mg/kg/injection, schedule: Q04DX003 (ip), vehicle: suspension in saline): 56 % of control

COC(OC(CO)C(O)S(=O)(=O)O)C(O)S(=O)(=O)O (stereo not drawn)
T/C (dose: 200.0 mg/kg/injection, schedule: Q04DX003 (ip), vehicle: saline): 45 % of control
T/C [7]: 89 % of control
T/C [8]: 82 % of control
T/C [9]: 41 % of control

CN(CO)c1nc(N(C)CO)nc(N(C)CO)n1
T/C (dose: 25.0 mg/kg/injection, schedule: Q01DX005 (ip), vehicle: saline): 79 % of control and 226 % of control
T/C (dose: 25.0 mg/kg/injection, schedule: Q04DX005 (ip), vehicle: saline): 114 % of control
T/C (dose: 50.0 mg/kg/injection, schedule: Q01DX005 (ip), vehicle: saline): 59 % of control and 73 % of control
T/C (dose: 50.0 mg/kg/injection, schedule: Q04DX005 (ip), vehicle: saline): 79 % of control and 84 % of control
T/C (dose: 50.0 mg/kg/injection, schedule: Q07DX005 (ip), vehicle: saline): 29 % of control
T/C (dose: 100.0 mg/kg/injection, schedule: Q01DX005 (ip), vehicle: saline): 102 % of control and 122 % of control
T/C (dose: 100.0 mg/kg/injection, schedule: Q04DX005 (ip), vehicle: saline): 93 % of control
T/C (dose: 100.0 mg/kg/injection, schedule: Q07DX005 (ip), vehicle: saline): 26 % of control and 33 % of control
T/C (dose: 200.0 mg/kg/injection, schedule: Q01DX005 (ip), vehicle: saline): -5 % of control
T/C (dose: 200.0 mg/kg/injection, schedule: Q07DX005 (ip), vehicle: saline): 49 % of control and 55 % of control

CN(C)N=Nc1cccc(C(N)=O)c1
T/C [10]: 98 % of control
T/C [11]: 36 % of control

OC(CBr)C(O)C(O)C(O)CBr (stereo not drawn)
T/C [11]: 98 % of control
T/C (dose: 50.0 mg/kg/injection, schedule: Q04DX003 (ip), vehicle: Klucel (hydroxypropylcellulose) (HPC)): 66 % of control

Oc1cc2c3c(c1)c1cc4c(cc1c[n+]3CC2)OCO4
T/C (dose: 12.5 mg/kg/injection, schedule: Q04DX003 (ip), vehicle: water): 78 % of control
T/C (dose: 25.0 mg/kg/injection, schedule: Q04DX003 (ip), vehicle: water): 63 % of control
T/C [4]: 62 % of control

O=C1c2c(O)ccc(O)c2C(=O)c2c(NCCNCCO)ccc(NCCNCCO)c21
T/C (dose: 0.31 mg/kg/injection, schedule: Q04DX003 (ip), vehicle: water): 52 % of control

O=C/C(Cl)=C(/Cl)C(=O)O
T/C (dose: 3.13 mg/kg/injection, schedule: Q04DX003 (ip), vehicle: saline with Tween-80): 112 % of control
T/C (dose: 6.25 mg/kg/injection, schedule: Q04DX003 (ip), vehicle: saline with Tween-80): 84 % of control
T/C (dose: 12.5 mg/kg/injection, schedule: Q04DX003 (ip), vehicle: saline with Tween-80): 71 % of control

CC(C)CCCCCCCCCCCCC(=O)NCC(=O)NC1C(O)C(O)C(Nc2ncnc3nc[nH]c23)OC1C(O)CO (stereo not drawn)
T/C (dose: 3.0 mg/kg/injection, schedule: Q04DX003 (ip), vehicle: suspension in saline): 81 % of control
T/C (dose: 12.0 mg/kg/injection, schedule: Q04DX003 (ip), vehicle: suspension in saline): 34 % of control

NC(=S)N/N=C/c1ccc(O)cn1
T/C [5]: 64 % of control
T/C [6]: 76 % of control

O=C(NO)c1ccccc1
T/C (dose: 100.0 mg/kg/injection, schedule: Q04DX003 (ip), vehicle: suspension in saline): 95 % of control
T/C [7]: 68 % of control and 84 % of control
T/C [8]: 55 % of control and 80 % of control
T/C [9]: 85 % of control

CNC(=O)ON(C(C)=O)C(=O)NC
T/C [12]: 94 % of control
T/C [13]: 103 % of control
T/C (dose: 50.0 mg/kg/injection, schedule: Q04DX003 (ip), vehicle: saline): 71 % of control
T/C (dose: 100.0 mg/kg/injection, schedule: Q04DX003 (ip), vehicle: saline): 60 % of control

OCC1OC(n2cnc3cncnc32)C(O)C1O (stereo not drawn)
T/C [13]: 83 % of control

C=C(C)[C@H]1Cc2c(ccc3c2O[C@@H]2COc4cc(OC)c(OC)cc4[C@@H]2C3=O)O1
T/C (dose: 3.13 mg/kg/injection, schedule: Q04DX003 (ip), vehicle: saline): 106 % of control
T/C (dose: 6.25 mg/kg/injection, schedule: Q04DX003 (ip), vehicle: saline): 73 % of control
T/C [12]: 91 % of control
T/C [13]: 102 % of control

CCCCNCCCNCCCNC(=O)c1csc(-c2csc(CCNC(=O)C(NC(=O)C(C)C(O)C(C)NC(=O)C(NC(=O)c3nc(C(CC(N)=O)NCC(N)C(N)=O)nc(N)c3C)C(OC3OC(CO)C(O)C(O)C3OC3OC(CO)C(O)C(OC(N)=O)C3O)c3cnc[nH]3)C(C)O)n2)n1 (stereo not drawn)
T/C (dose: 8.0 mg/kg/injection, schedule: Q04DX003 (ip), vehicle: saline): 56 % of control
T/C [1]: 19 % of control
T/C [3]: 30 % of control
T/C [2]: 20 % of control
T/C (dose: 32.0 mg/kg/injection, schedule: Q04DX003 (ip), vehicle: saline): 26 % of control
T/C (dose: 64.0 mg/kg/injection, schedule: Q04DX003 (ip), vehicle: saline): 19 % of control
T/C (dose: 128.0 mg/kg/injection, schedule: Q04DX003 (ip), vehicle: saline): 1 % of control

COc1cccc2c1C(=O)c1c(O)c3c(c(O)c1C2=O)C[C@@](O)(C(=O)CO)C[C@@H]3OC1CC(N)C(O)C(C)O1 (stereo partly drawn)
T/C (dose: 4.0 mg/kg/injection, schedule: Q04DX003 (ip), vehicle: water): 81 % of control

CN(C)N=Nc1ccccc1
T/C [10]: 94 % of control
T/C [11]: 61 % of control and 79 % of control

COc1cccc2c1C(=O)c1c(O)c3c(c(O)c1C2=O)C[C@@](O)(C(=O)CO)C[C@@H]3OC1CC(N)CC(C)O1 (stereo partly drawn)
T/C (dose: 0.4 mg/kg/injection, schedule: Q04DX003 (ip), vehicle: water): 67 % of control
T/C (dose: 0.79 mg/kg/injection, schedule: Q04DX003 (ip), vehicle: water): 109 % of control
T/C (dose: 1.57 mg/kg/injection, schedule: Q04DX003 (ip), vehicle: water): 99 % of control
T/C (dose: 3.13 mg/kg/injection, schedule: Q04DX003 (ip), vehicle: water): 90 % of control

Nc1nc(N)c2cc(CNc3ccc(C(=O)NC(CC(=O)O)CC(=O)O)cc3)ccc2n1
T/C (dose: 6.25 mg/kg/injection, schedule: Q04DX003 (ip), vehicle: Klucel (hydroxypropylcellulose) (HPC)): 66 % of control
T/C [10]: 71 % of control
T/C [11]: 78 % of control
